Reference: patent US12617773B2, “Azetidin-3-ylmethanol derivatives as CCR6 receptor modulators” (Idorsia Pharmaceuticals Ltd, priority 2020, dated 2026)

Molecular target: T1, human CCR6 (Homo sapiens, UniProt P51684)
T1 construct: expressed in transfected cells; host or cells: HEK-293
T1 sequence (P51684 1-374): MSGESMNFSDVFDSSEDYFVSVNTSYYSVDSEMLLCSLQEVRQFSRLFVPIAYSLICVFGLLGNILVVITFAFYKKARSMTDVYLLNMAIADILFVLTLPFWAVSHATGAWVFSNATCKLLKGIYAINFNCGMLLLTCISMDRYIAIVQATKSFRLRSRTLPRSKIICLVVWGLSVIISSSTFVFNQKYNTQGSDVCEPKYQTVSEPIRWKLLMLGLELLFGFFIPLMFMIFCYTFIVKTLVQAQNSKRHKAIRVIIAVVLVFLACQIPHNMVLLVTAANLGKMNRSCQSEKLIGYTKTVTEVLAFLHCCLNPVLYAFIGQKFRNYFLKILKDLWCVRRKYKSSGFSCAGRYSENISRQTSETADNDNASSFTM
Assay: FLIPR assay (inhibition of CCL20-induced calcium signal)
Format: cell-based
Details: HEK-293 cells expressing human CCR6; mean values where determined several times; read-out: FLIPR IC50
In short: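 Dye-loaded HEK-293 cells expressing human CCR6 were preincubated with compound for 30 min at room temperature in the dark, then challenged with 10 nM CCL20 (final). Fluorescence was tracked on FLIPR, and baseline-subtracted peak emission over base after agonist addition gave inhibition dose-response curves for IC50.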

IC50	SMILES
246 nM	CC(C)c1ccc([C@](O)(c2cccnc2)C2(C)CN(C)C2)cc1 [Example 293]
49.4 nM	CC(C)c1ccc([C@](O)(c2cncc(C3=CC(=O)CC3)c2)C2(C)CN(C)C2)cc1 [Example 294, 3-{5-[(R)-(1,3-Dimethyl-azetidin-3-yl)-hydroxy-(4-isopropyl-phenyl)-methyl]-pyridin-3-yl}-cyclopent-2-enone]
61.1 nM	CC(C)c1ccc([C@](O)(c2cncc(C3=CC(C)(O)CC3)c2)C2(C)CN(C)C2)cc1 (stereo partly drawn) [Example 295, 3-{5-[(R)-(1,3-Dimethyl-azetidin-3-yl)-hydroxy-(4-isopropyl-phenyl)-methyl]-pyridin-3-yl}-1-methyl-cyclopent-2-enol]
118 nM	CC(C)c1ccc([C@](O)(c2cncc([C@H]3CCC(C)(O)C3)c2)C2(C)CN(C)C2)cc1 (stereo partly drawn) [Example 296, (3S)-3-(5-((R)-(1,3-dimethylazetidin-3-yl)(hydroxy)(4-isopropylphenyl)methyl)pyridin-3-yl)-1-methylcyclopentan-1-ol]
65.2 nM	CCC1(O)CCC(c2cncc([C@@](O)(c3ccc(C(C)C)cc3)C3(C)CN(C)C3)c2)C1 (stereo partly drawn) [Example 298, 3-{5-[(R)-(1,3-Dimethyl-azetidin-3-yl)-hydroxy-(4-isopropyl-phenyl)-methyl]-pyridin-3-yl}-1-ethyl-cyclopentanol]
80.6 nM	CC(C)c1ccc([C@](O)(c2cncc(C3CCC(O)(C(C)C)C3)c2)C2(C)CN(C)C2)cc1 (stereo partly drawn) [Example 299, 3-{5-[(R)-(1,3-Dimethyl-azetidin-3-yl)-hydroxy-(4-isopropyl-phenyl)-methyl]-pyridin-3-yl}-1-isopropyl-cyclopentanol]
40.8 nM	Cc1coc(-c2cncc([C@@](O)(c3ccc(C(C)C)cc3)C3(C)CN(C)C3)c2)n1 [Example 300, (R)-(1,3-Dimethyl-azetidin-3-yl)-(4-isopropyl-phenyl)-[5-(4-methyl-oxazol-2-yl)-pyridin-3-yl]-methanol]
60 nM	CCc1cncc([C@@](O)(c2ccc(C(C)C)cc2)C2(C)CN(C)C2)c1 [Example 301, (R)-(1,3-Dimethyl-azetidin-3-yl)-(5-ethyl-pyridin-3-yl)-(4-isopropyl-phenyl)-methanol]
44.5 nM	Cc1cncc([C@@](O)(c2ccc(C(C)C)cc2)C2(C)CN(C)C2)c1 [Example 302, (R)-(1,3-Dimethyl-azetidin-3-yl)-(4-isopropyl-phenyl)-(5-methyl-pyridin-3-yl)-methanol]
30.7 nM	CC(C)c1ccc([C@](O)(c2cncc(C3=COCC3)c2)C2(C)CN(C)C2)cc1 [Example 303, (R)-[5-(4,5-Dihydro-furan-3-yl)-pyridin-3-yl]-(1,3-dimethyl-azetidin-3-yl)-(4-isopropyl-phenyl)-methanol]
385 nM	CC(C)c1ccc([C@](O)(c2cncc(C3CCOC3)c2)C2(C)CN(C)C2)cc1 (stereo partly drawn) [Example 304, (R)-(1,3-Dimethyl-azetidin-3-yl)-(4-isopropyl-phenyl)-[5-(tetrahydro-furan-3-yl)-pyridin-3-yl]-methanol]
121 nM	C=C(CCO)c1cncc([C@@](O)(c2ccc(C(C)C)cc2)C2(C)CN(C)C2)c1 [Example 305, 3-{5-[(R)-(1,3-Dimethyl-azetidin-3-yl)-hydroxy-(4-isopropyl-phenyl)-methyl]-pyridin-3-yl}-but-3-en-1-ol]
101 nM	CC(C)c1ccc([C@](O)(c2cncc(C(=O)NC3CCCC3)c2)C2(C)CN(C)C2)cc1 [Example 306, N-Cyclopentyl-5-[(R)-(1,3-dimethyl-azetidin-3-yl)-hydroxy-(4-isopropyl-phenyl)-methyl]-nicotinamide]
567 nM	CC(C)c1ccc([C@](O)(c2cncc(C(=O)N3CCCC3)c2)C2(C)CN(C)C2)cc1 [Example 307]
515 nM	CC(C)c1ccc([C@](O)(c2cncc(C(=O)NC3CCOCC3)c2)C2(C)CN(C)C2)cc1 [Example 308]
58.6 nM	COCCCc1ccc(C(O)(c2cncc(N3CCCC3)c2)C2(C)CN(C)C2)cc1 (centres unmarked) [Example 309, (1,3-Dimethyl-azetidin-3-yl)-[4-(3-methoxy-propyl)-phenyl]-(5-pyrrolidin-1-yl-pyridin-3-yl)-methanol]
48.6 nM	CN1CC(C)([C@](O)(c2ccc(C3CC3)cc2)c2cncc(N3CCCC3)c2)C1 [Example 310]
140 nM	Cc1ccc([C@](O)(c2cncc(N3CCCC3)c2)C2(C)CN(C)C2)cc1 [Example 311]
23.9 nM	CC(C)c1ccc([C@](O)(c2cncc(C3CCN(C(=O)OC(C)(C)C)CC3)c2)C2(C)CN(C)C2)cc1 [Example 312, 5-[(R)-(1,3-Dimethyl-azetidin-3-yl)-hydroxy-(4-isopropyl-phenyl)-methyl]-3′,4′,5′,6′-tetrahydro-2′H-[3,4′]bipyridinyl-1′-carboxylic acid tert-butyl ester]
158 nM	CC(C)c1ccc([C@](O)(c2cncc(C3CCN(C(=O)OC(C)(C)C)C3)c2)C2(C)CN(C)C2)cc1 (some centres unmarked) [Example 313]
111 nM	CC(C)c1ccc([C@](O)(c2cncc(C3CCOCC3)c2)C2(C)CN(C)C2)cc1 [Example 314]
23.6 nM	CC(C)c1ccc([C@](O)(c2cncc(C3CCN(c4ccccn4)CC3)c2)C2(C)CN(C)C2)cc1 [Example 315, (R)-(1,3-Dimethyl-azetidin-3-yl)-(4-isopropyl-phenyl)-(3′,4′,5′,6′-tetrahydro-2′H-[2,1′; 4′,3″]terpyridin-5″-yl)-methanol]
154 nM	CC(C)c1ccc([C@](O)(c2cncc(C3CCCO3)c2)C2(C)CN(C)C2)cc1 (stereo partly drawn) [Example 318, (R)-(1,3-Dimethyl-azetidin-3-yl)-(4-isopropyl-phenyl)-[5-(tetrahydro-furan-2-yl)-pyridin-3-yl]-methanol]
94.4 nM	CC1CCC(c2cncc([C@@](O)(c3ccc(C(C)C)cc3)C3(C)CN(C)C3)c2)O1 (some centres unmarked) [Example 319]
86 nM	CC(C)c1ccc([C@](O)(c2cncc(C3CCC(C)(C)O3)c2)C2(C)CN(C)C2)cc1 (some centres unmarked) [Example 320]
273 nM	CC(C)c1ccc([C@](O)(c2cncc(CC(F)(F)CO)c2)C2(C)CN(C)C2)cc1 [Example 321, 3-{5-[(R)-(1,3-Dimethyl-azetidin-3-yl)-hydroxy-(4-isopropyl-phenyl)-methyl]-pyridin-3-yl}-2,2-difluoro-propan-1-ol]
49.9 nM	Cc1cnc(-c2cncc([C@@](O)(c3ccc(C(C)C)cc3)C3(C)CN(C)C3)c2)o1 [Example 322, (R)-(1,3-Dimethyl-azetidin-3-yl)-(4-isopropyl-phenyl)-[5-(5-methyl-oxazol-2-yl)-pyridin-3-yl]-methanol]
67.8 nM	CC(C)c1ccc([C@](O)(c2cncc(-c3ncc(C4CCOCC4)o3)c2)C2(C)CN(C)C2)cc1 [Example 323, (R)-(1,3-Dimethyl-azetidin-3-yl)-(4-isopropyl-phenyl)-{5-[5-(tetrahydro-pyran-4-yl)-oxazol-2-yl]-pyridin-3-yl}-methanol]
15 nM	CC(C)c1ccc([C@](O)(c2cncc(COc3ccc(F)cc3)c2)C2(C)CN(C)C2)cc1 [Example 324, (R)-(1,3-Dimethyl-azetidin-3-yl)-[5-(4-fluoro-phenoxymethyl)-pyridin-3-yl]-(4-isopropyl-phenyl)-methanol]
